Laboratory results from PubChem BioAssay (NCI).
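Following 48 hours of exposure in 96-well plates, responses at five concentrations were used to interpolate endpoints linearly. TGI: total growth inhibition.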

Legend:
Assay in all cases: NCI anticancer screen, dose series, 48 h
UO-31 renal = test system: UO-31 renal
UACC-62 melanoma = test system: UACC-62 melanoma
786-0 renal = test system: 786-0 renal
UACC-257 melanoma = test system: UACC-257 melanoma
OVCAR-4 ovarian = test system: OVCAR-4 ovarian
SR leukemia = test system: SR leukemia
OVCAR-5 ovarian = test system: OVCAR-5 ovarian
K-562 leukemia = test system: K-562 leukemia
HT29 colon = test system: HT29 colon
HL-60(TB) leukemia = test system: HL-60(TB) leukemia

Row | Structure (SMILES) | TGI (UO-31 renal) [µM] | TGI (UACC-62 melanoma) [µM] | TGI (786-0 renal) [µM] | TGI (UACC-257 melanoma) [µM] | TGI (OVCAR-4 ovarian) [µM] | TGI (SR leukemia) [µM] | TGI (OVCAR-5 ovarian) [µM] | TGI (K-562 leukemia) [µM] | TGI (HT29 colon) [µM] | TGI (HL-60(TB) leukemia) [µM]
1 | CCc1c(Cc2cccc3ccccc23)n2c(nc1=O)SCC2OCCO (stereo not given) | > 100 | > 100 | > 100 | > 100 | > 100 | 89.4 | > 100 | > 100 | > 100 | > 100
2 | CN1CCN(c2c(Cl)cc(Cl)c3[nH]c4ccccc4c(=O)c23)CC1 | 17.3 | 18.6 | > 43.3 | 22.1 | 46.2 | > 100 | 29.3 | > 48.6 | 16.1 | 4.63
3 | COC1OC(Cc2nnc(C)o2)C(OCc2ccccc2)C(OCc2ccccc2)C1OCc1ccccc1 (stereo not given) | > 100 | 32.3 | > 100 | 36.9 | > 100 | 29.6 | > 100 | 98.5 | 63.3 | 76.3
4 | CC[N+](C)(CC)CCC(O)(c1ccccc1)c1ccccc1 | > 100 | > 100 | > 100 | > 100 | > 100 | > 100 | > 100 | > 100 | > 100 | > 100
5 | COc1cc2nc(-c3ccc4ccccc4c3)[nH]c(=O)c2cc1OC | > 100 | > 100 | > 100 | > 100 | > 100 | > 100 | > 100 | > 100 | > 100 | > 100
6 | Cc1ccc(S(=O)(=O)NNC(=O)c2cc(C)ccc2NC(=O)C23CC4CC(CC(C4)C2)C3)cc1 | 44.9 | > 100 | 57.3 | > 100 | 78.5 | > 100 | > 100 | > 100 | > 100 | > 100
7 | Nc1ncnc2c1ncn2C1CCC(COS(N)(=O)=O)C1 (stereo not given) | > 100 | > 100 | > 100 | > 100 | > 100 | > 100 | > 100 | > 100 | > 100 | > 100
8 | O=[N+]([O-])c1c(Br)cc(Br)c2c1Nc1c(ccc(Cl)c1Cl)S2 | 20.5 | 33.1 | 22.8 | 21.2 | 28.7 | > 26.8 | 33.7 | 17.3 | 26 | > 23.9
9 | Cc1ccc(C2=NOC(=O)[C@@H]3CCCC[C@@H]23)cc1 | > 100 | > 100 | > 100 | > 100 | > 100 | > 100 | > 100 | > 100 | > 100 | > 100
10 | CCOC(=O)C1(C(=O)OCC)[C@H](c2ccccc2)C2=NO[C@@H]3CCC[C@H]1[C@H]23 | > 100 | > 100 | > 100 | > 100 | > 100 | > 100 | > 100 | > 100 | > 100 | > 100
11 | CCOC(=O)C(=[N+]=[N-])C(=O)Nc1nn2nnnc2c2ccccc12 | > 100 | > 100 | > 100 | > 100 | > 100 | > 100 | > 100 | > 100 | > 100 | > 100
12 | N#CC(C#N)=C1C(C#N)=C(N)NC12OCCO2 | > 100 | > 100 | > 100 | > 100 | > 100 | > 100 | > 100 | > 100 | > 100 | > 100
13 | COc1ccc(N(C)C(=O)N(C)c2ccc([N+](=O)[O-])cc2)cc1 | > 100 | > 100 | > 100 | > 100 | > 100 | > 100 | > 100 | > 100 | > 100 | > 100
14 | C[C@@H](O)C(=O)N1[C@@H]2CC3CC[C@]2(CS1(=O)=O)C3(C)C | > 100 | > 100 | > 100 | > 100 | > 100 | 58.5 | > 100 | > 100 | > 100 | > 100
15 | Cc1ccc(C(=O)N/N=C(\N=Nc2cccc(Cl)c2)c2ccc(N(CCC#N)CCC#N)cc2C)cc1 | > 100 | > 100 | > 100 | > 100 | > 100 | > 100 | > 100 | > 100 | > 100 | > 100
16 | O=Cc1ccccc1OCCOc1cc(OCCOc2ccccc2C=O)c(OCCOc2ccccc2C=O)cc1OCCOc1ccccc1C=O | > 100 | > 100 | > 71.3 | > 100 | > 100 | > 100 | > 100 | > 100 | > 100 | > 100
17 | COc1cc(/C=C/C(=O)c2c(=O)o[nH][n+]2-c2ccccc2)ccc1[O-] | 10.1 | 13.7 | 4.94 | 12.4 | 7.17 | 4.54 | 25.6 | 8.61 | 6.64 | 3.65
18 | Cc1ccc(C(=O)O)c(CC2Cc3c(C)cccc3C2=O)c1 (stereo not given) | > 100 | > 100 | > 100 | > 100 | > 100 | > 100 | > 100 | > 100 | > 100 | > 100
19 | Cc1cccc2c1[nH]c1[nH]c(=O)[nH]c(=O)c12 | > 100 | > 100 | > 100 | > 100 | > 100 | > 100 | > 100 | > 100 | > 100 | > 100
20 | O=C1C=CC(=O)C(CNc2ccc(C(=O)OC34CC5CC(CC(C5)C3)C4)cc2)=C1 | 16 | 16.5 | 23 | 18.2 | 12 | > 29.3 | 39.2 | > 49.3 | 24.6 | > 21.6
21 | COC(=O)[C@H]1[C@@H](C(C)C)O[C@@H](C(C)C)O[C@H]1C(F)(F)F | > 100 | > 100 | > 100 | > 100 | > 100 | > 100 | > 100 | > 100 | > 100 | > 100
22 | N=C1N(S(=O)(=O)c2ccccc2)[C@@H](Cc2ccccc2)[C@H](c2ccccc2)C1(c1ccccc1)c1ccccc1 | > 100 | > 100 | > 100 | > 100 | > 100 | > 100 | > 100 | > 100 | > 100 | > 100
23 | Cc1ccccc1-n1c(C)nc2c1C(=O)c1ccccc1C2=O | > 100 | > 100 | > 100 | > 100 | > 100 | > 100 | > 100 | > 100 | > 100 | 87.5
